Assay: solvent given as SMILES

For `C/C=C/c1ccc(OC)cc1`, the fluorescence lifetime (in CC#N) was 8.7 ns and the fluorescence lifetime (in CCCCCC) was 7.9 ns.

In the case of `OB(O)c1ccc(-c2ccc(N(c3ccccc3)c3ccccc3)cc2)cc1`, the fluorescence lifetime (in C1CCCCC1) was 1.59 ns, the fluorescence lifetime (in C1CCOC1) was 2.14 ns and the fluorescence lifetime (in CC#N) was 2.24 ns. The fluorescence lifetime (in CCO) was 2.39 ns, the fluorescence lifetime (in CCOC(C)=O) was 2.21 ns and the fluorescence lifetime (in CCOCC) was 1.69 ns. It also gave a fluorescence lifetime (in CO) of 2.97 ns.

For `COC(=O)C12N=N[C@](C(=O)OC)(C3C4CCC(C4)C31)C1[C@@H]3CC[C@@H](C3)[C@H]12` (stereo partly drawn), the fluorescence lifetime (in CC#N) was 273 ns.

Work on `COc1ccc(Nc2nc(/C=C/c3ccccc3)[n+]([O-])c3c2CCCC3)cc1` yielded a fluorescence lifetime (in ClCCl) of 8.2 ns.

Molecule `CC1=[N+]2C(=C(c3cccs3)c3ccc(C)n3[B-]2(F)F)C=C1c1cc2n(c1)[B-](F)(F)[N+]1=CC=CC1=C2c1c(C)cc(C)cc1C` has a fluorescence lifetime (in C1CCCCC1) of 2.67 ns and a fluorescence lifetime (in CCOC(C)=O) of 0.92 ns.

Molecule `COc1ccc(C(=O)NN2C3=C(CC4=C2CCCC4=O)C(=O)CCC3)cc1` has a fluorescence lifetime (in CC#N) of 6.2 ns, a fluorescence lifetime (in CC(C)=O) of 5.4 ns and a fluorescence lifetime (in CCCCCO) of 6.1 ns. The fluorescence lifetime (in CO) was 4.7 ns, the fluorescence lifetime (in ClC(Cl)Cl) was 6.2 ns and the fluorescence lifetime (in ClCCl) was 8.3 ns.

Work on `CCCCCCC(CCCCCC)N1C(=O)c2cccc3c(-c4ccc(OC)c5ccccc45)ccc(c23)C1=O` yielded a fluorescence lifetime (in CCCCCC) of 1.7 ns, a fluorescence lifetime (in CCCCCCCCCCCCCC) of 1.83 ns and a fluorescence lifetime (in CCCCCCCCCCCO) of 4.85 ns. For the same molecule, the fluorescence lifetime (in CCCCO) was 1.8 ns, the fluorescence lifetime (in CN(C)C=O) was 3.85 ns and the fluorescence lifetime (in Cc1ccccc1) was 1.53 ns. It also gave a fluorescence lifetime (in ClC(Cl)Cl) of 4.07 ns.

With `Fc1cccc(-[c+]2c3ccccc3sc3ccccc32)c1` the fluorescence lifetime (in CC#N) was 1.3 ns.

With `COc1ccc2c(=O)c3c([nH]c2c1)-c1cc(Cl)ccc1NC3(C)C` the fluorescence lifetime (in C1CCOC1) was 8.91 ns, the fluorescence lifetime (in CC#N) was 9.32 ns and the fluorescence lifetime (in CCCCO) was 9.93 ns. For the same molecule, the fluorescence lifetime (in CCCO) was 9.91 ns, the fluorescence lifetime (in CCO) was 9.44 ns and the fluorescence lifetime (in CCOC(C)=O) was 8.48 ns. The fluorescence lifetime (in CN(C)C=O) was 10.4 ns, the fluorescence lifetime (in CO) was 9.17 ns and the fluorescence lifetime (in CS(C)=O) was 11.2 ns. For the same molecule, the fluorescence lifetime (in Cc1ccccc1) was 7.94 ns, the fluorescence lifetime (in ClC(Cl)(Cl)Cl) was 5.41 ns and the fluorescence lifetime (in ClCCl) was 9.85 ns. The fluorescence lifetime (in O) was 6.93 ns and the fluorescence lifetime (in c1ccccc1) was 8.01 ns.

In the case of `Cc1cc(-c2nc(-c3ccccc3)nc(-c3ccccc3)n2)ccc1-n1c2ccccc2c2cc3c(cc21)C1c2ccccc2C3c2ccccc21`, the fluorescence lifetime (in O=P(c1ccccc1)(c1ccccc1)c1ccccc1Oc1ccccc1P(=O)(c1ccccc1)c1ccccc1) was 10.6 ns.

`CCCn1c2cccc3oc4cccc5c4[c+](c32)c2c1cccc2n5CCC` gave a fluorescence lifetime (in CC#N) of 19.4 ns, a fluorescence lifetime (in CO) of 17.8 ns and a fluorescence lifetime (in ClCCl) of 20.6 ns. It also gave a fluorescence lifetime (in OCC(O)CO) of 18.3 ns.

Work on `N#C/C(=C\c1ccc(C#N)cc1)c1nc(-c2ccc(Cl)cc2)c(-c2ccccc2)s1` yielded a fluorescence lifetime (in CC#N) of 2.48 ns.

Molecule `CN(C)c1ccc2nc(-c3ccc(/C=N/Nc4ccccc4)cc3)sc2c1` has a fluorescence lifetime (in C1CCCCC1) of 2 ns.

With `COc1ccc(O)c(-c2nc(C)c3n2CCCC3)c1` the fluorescence lifetime (in ClCCl) was 1.12 ns.

For `O=c1oc2cc(S(=O)(=O)O)c3ccccc3c2nc1-c1ccccc1`, the fluorescence lifetime (in CC#N) was 4.5 ns.

`CN(C)c1ccc(/C=C2\CC/C(=C\c3ccc(N(C)C)cc3)C2=O)cc1` showed a fluorescence lifetime (in C1CCOC1) of 0.6 ns, a fluorescence lifetime (in C1COCCO1) of 0.5 ns and a fluorescence lifetime (in CC#N) of 0.54 ns. The fluorescence lifetime (in CC(C)=O) was 0.74 ns, the fluorescence lifetime (in CC(C)O) was 0.68 ns and the fluorescence lifetime (in CCO) was 0.34 ns. The fluorescence lifetime (in CCOC(C)=O) was 0.59 ns, the fluorescence lifetime (in CN(C)C=O) was 0.92 ns and the fluorescence lifetime (in CO) was 0.29 ns. The fluorescence lifetime (in CS(C)=O) was 0.85 ns, the fluorescence lifetime (in Cc1ccccc1) was 0.48 ns and the fluorescence lifetime (in ClC(Cl)(Cl)Cl) was 0.37 ns. It also gave a fluorescence lifetime (in ClC(Cl)Cl) of 0.57 ns, a fluorescence lifetime (in ClCCl) of 0.77 ns and a fluorescence lifetime (in S=C=S) of 0.51 ns.

`CCCCN1C(=O)c2cc(Oc3ccc(C(C)(C)C)cc3)c3c4c(Oc5ccc(C(C)(C)C)cc5)cc5c(=O)[nH]/c(=C\c6ccccn6)c6cc(Oc7ccc(C(C)(C)C)cc7)c(c7c(Oc8ccc(C(C)(C)C)cc8)cc(c2c37)C1=O)c4c56` showed a fluorescence lifetime (in C1CCOC1) of 3.33 ns, a fluorescence lifetime (in Cc1ccccc1) of 3.57 ns and a fluorescence lifetime (in ClCCl) of 4.05 ns.

From the Deep4Chem optical property database
